Test results as given in the kinase profiling compilation of Christmann-Franck et al. (2016).
Each block holds one compound with its values, some of them ahead of it.

Assays:
Test in all cases: KINOMEscan competition binding
Conditions in all cases: compound 10.0 µM
[1] = target: CAMK1G (human) (UniProt Q96NX5)
[2] = target: HIPK1 (human) (UniProt Q86Z02)
[3] = target: ANKK1 (human) (UniProt Q8NFD2)
[4] = target: LCK (human) (UniProt P06239)
[5] = target: TXK (human) (UniProt P42681)
[6] = system: EGFR (human), P00533 [747-751 del / S ins]
[7] = target: MYO3A (human) (UniProt Q8NEV4)
[8] = target: CDK16 (human) (UniProt Q00536)
[9] = target: MAP4K1 (human) (UniProt Q92918)
[10] = target: SIK1 (human) (UniProt P57059)
[11] = target: INSR (human) (UniProt P06213)
[12] = target: INSRR (human) (UniProt P14616)
[13] = target: TNNI3K (human) (UniProt Q59H18)
[14] = target: PLK3 (human) (UniProt Q9H4B4)
[15] = target: IKBKE (human) (UniProt Q14164)
[16] = target: RPS6KA1 KD2 (human) (UniProt Q15418)
[17] = target: PKMYT1 (human) (UniProt Q99640)
[18] = target: MET (human) (UniProt P08581)
[19] = target: MAP3K7 (human) (UniProt O43318)
[20] = target: EPHB4 (human) (UniProt P54760)
[21] = target: TEC (human) (UniProt P42680)
[22] = target: MAPK3 (human) (UniProt P27361)
[23] = target: CSNK1G1 (human) (UniProt Q9HCP0)
[24] = target: PIM2 (human) (UniProt Q9P1W9)
[25] = target: MAP2K6 (human) (UniProt P52564)
[26] = target: STK16 (human) (UniProt O75716)
[27] = target: AKT3 (human) (UniProt Q9Y243)
[28] = target: MARK1 (human) (UniProt Q9P0L2)
[29] = target: LIMK1 (human) (UniProt P53667)
[30] = target: MYLK4 (human) (UniProt Q86YV6)
[31] = target: STK32B (human) (UniProt Q9NY57)
[32] = target: TLK2 (human) (UniProt Q86UE8)
[33] = target: EPHB3 (human) (UniProt P54753)
[34] = target: MYLK (human) (UniProt Q15746)
[35] = target: MAP3K12 (human) (UniProt Q12852)
[36] = target: RIPK2 (human) (UniProt O43353)
[37] = target: CDC42BPA (human) (UniProt Q5VT25)
[38] = target: TLK1 (human) (UniProt Q9UKI8)
[39] = target: CAMK2G (human) (UniProt Q13555)
[40] = system: EIF2AK4 KD2 (human), Q9P2K8 [S808G]
[41] = target: PHKG1 (human) (UniProt Q16816)
[42] = target: NUAK2 (human) (UniProt Q9H093)

Sequence of INSRR (human) (P14616 whole entry, looked up): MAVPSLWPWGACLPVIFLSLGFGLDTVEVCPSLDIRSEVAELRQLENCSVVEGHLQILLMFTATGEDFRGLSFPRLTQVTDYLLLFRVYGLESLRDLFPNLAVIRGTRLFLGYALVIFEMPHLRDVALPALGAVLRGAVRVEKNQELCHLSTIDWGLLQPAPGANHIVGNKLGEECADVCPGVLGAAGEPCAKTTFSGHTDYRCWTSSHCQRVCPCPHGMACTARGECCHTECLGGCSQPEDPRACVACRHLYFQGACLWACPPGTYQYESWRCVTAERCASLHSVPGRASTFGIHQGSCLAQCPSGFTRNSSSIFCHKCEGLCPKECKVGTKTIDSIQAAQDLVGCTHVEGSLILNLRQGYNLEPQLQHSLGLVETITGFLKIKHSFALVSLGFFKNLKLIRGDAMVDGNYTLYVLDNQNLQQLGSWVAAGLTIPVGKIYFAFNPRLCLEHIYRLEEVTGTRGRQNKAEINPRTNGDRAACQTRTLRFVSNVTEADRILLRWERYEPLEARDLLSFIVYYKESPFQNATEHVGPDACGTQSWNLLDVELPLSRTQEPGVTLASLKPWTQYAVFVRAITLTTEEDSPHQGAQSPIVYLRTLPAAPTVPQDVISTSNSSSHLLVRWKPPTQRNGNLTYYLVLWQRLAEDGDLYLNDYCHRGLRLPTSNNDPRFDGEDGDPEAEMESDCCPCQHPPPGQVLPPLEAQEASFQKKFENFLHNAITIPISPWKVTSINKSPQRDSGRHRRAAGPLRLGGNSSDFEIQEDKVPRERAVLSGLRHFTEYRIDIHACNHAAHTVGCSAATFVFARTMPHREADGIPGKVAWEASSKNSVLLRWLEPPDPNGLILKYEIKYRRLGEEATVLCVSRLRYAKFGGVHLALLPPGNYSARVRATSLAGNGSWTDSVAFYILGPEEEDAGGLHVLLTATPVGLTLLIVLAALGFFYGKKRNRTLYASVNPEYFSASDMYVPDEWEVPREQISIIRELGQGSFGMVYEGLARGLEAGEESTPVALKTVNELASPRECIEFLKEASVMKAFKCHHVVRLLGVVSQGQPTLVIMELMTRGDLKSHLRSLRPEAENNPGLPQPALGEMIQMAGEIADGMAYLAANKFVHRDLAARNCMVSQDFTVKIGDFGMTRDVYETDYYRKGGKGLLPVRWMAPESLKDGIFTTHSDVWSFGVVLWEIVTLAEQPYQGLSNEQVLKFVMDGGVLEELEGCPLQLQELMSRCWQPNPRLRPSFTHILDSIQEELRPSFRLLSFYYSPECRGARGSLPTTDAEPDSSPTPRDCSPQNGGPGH
Sequence of MAP3K7 (human) (O43318 whole entry, looked up): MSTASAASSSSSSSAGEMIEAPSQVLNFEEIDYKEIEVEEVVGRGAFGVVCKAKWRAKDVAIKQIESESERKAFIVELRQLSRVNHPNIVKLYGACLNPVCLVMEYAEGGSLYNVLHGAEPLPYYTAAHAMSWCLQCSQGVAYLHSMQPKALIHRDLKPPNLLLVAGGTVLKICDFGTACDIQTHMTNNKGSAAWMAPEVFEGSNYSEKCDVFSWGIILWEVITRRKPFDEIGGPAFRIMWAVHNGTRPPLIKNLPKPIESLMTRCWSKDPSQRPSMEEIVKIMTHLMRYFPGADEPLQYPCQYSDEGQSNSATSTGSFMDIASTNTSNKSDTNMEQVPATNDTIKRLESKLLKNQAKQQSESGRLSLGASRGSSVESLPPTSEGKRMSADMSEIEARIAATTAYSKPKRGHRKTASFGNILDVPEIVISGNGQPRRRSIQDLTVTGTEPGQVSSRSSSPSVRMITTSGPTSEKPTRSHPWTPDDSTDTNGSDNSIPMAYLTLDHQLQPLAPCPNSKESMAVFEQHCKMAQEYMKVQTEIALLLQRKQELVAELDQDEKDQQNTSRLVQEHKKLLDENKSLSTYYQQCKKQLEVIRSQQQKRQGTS
Sequence of PHKG1 (human) (Q16816 whole entry, looked up): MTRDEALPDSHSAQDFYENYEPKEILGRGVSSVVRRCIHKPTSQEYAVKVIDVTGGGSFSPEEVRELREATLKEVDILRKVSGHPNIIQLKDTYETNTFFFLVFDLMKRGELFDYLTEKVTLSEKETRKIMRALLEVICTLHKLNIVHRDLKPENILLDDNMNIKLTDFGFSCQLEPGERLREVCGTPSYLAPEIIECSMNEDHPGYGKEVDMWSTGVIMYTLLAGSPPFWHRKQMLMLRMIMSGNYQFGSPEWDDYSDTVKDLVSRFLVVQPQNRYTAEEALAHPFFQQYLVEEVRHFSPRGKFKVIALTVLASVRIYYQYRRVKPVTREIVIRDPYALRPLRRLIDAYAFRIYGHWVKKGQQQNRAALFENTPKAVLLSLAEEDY
Sequence of MYLK4 (human) (Q86YV6 whole entry, looked up): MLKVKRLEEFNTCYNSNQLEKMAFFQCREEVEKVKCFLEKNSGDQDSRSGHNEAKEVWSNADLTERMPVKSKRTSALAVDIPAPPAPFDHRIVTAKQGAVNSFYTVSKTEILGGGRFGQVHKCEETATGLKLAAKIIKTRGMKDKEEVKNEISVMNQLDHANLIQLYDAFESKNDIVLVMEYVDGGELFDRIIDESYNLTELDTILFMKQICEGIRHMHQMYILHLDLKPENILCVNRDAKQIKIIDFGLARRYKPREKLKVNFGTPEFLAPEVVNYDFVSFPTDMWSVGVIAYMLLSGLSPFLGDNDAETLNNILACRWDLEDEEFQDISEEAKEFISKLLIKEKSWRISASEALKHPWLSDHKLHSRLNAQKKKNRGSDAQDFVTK
Sequence of TXK (human) (P42681 whole entry, looked up): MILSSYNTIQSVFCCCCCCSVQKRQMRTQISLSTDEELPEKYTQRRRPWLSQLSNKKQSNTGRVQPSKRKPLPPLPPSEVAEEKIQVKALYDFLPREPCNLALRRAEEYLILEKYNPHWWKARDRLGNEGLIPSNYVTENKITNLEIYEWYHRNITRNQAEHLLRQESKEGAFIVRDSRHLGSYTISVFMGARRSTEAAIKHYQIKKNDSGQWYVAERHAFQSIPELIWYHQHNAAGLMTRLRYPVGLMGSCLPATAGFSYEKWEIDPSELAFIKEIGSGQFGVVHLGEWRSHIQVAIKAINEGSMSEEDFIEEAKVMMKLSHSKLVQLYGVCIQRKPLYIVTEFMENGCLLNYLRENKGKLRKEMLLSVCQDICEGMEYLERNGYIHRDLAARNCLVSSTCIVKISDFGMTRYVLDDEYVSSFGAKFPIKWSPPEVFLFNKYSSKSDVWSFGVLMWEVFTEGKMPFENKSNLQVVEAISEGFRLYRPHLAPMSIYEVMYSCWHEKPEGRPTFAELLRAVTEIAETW
Sequence of EPHB4 (human) (P54760 whole entry, looked up): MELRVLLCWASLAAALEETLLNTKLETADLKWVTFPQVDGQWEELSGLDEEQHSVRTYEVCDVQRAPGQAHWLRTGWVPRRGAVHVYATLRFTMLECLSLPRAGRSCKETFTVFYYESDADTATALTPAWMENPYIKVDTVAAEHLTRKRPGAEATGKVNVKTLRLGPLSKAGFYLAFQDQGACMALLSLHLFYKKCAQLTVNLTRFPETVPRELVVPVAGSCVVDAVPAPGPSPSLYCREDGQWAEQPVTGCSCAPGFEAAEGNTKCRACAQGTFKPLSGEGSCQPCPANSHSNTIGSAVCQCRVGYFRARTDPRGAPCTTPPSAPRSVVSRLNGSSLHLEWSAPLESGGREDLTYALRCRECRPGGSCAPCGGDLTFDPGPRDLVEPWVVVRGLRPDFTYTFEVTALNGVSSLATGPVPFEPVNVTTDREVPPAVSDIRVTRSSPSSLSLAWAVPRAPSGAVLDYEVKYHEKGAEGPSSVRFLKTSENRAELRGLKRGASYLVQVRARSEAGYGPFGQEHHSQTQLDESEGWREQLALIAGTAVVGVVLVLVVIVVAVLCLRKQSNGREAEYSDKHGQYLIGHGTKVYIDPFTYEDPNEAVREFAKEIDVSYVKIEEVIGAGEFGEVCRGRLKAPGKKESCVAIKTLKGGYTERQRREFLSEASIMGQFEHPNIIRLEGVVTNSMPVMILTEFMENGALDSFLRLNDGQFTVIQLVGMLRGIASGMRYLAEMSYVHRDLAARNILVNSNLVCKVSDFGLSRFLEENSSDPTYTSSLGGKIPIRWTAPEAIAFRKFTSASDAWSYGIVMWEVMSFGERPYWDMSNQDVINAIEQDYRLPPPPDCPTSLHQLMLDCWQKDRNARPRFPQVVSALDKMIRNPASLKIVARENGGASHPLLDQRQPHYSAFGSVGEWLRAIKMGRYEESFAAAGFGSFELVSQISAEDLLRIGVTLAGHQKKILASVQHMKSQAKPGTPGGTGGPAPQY
Sequence of MAP4K1 (human) (Q92918 whole entry, looked up): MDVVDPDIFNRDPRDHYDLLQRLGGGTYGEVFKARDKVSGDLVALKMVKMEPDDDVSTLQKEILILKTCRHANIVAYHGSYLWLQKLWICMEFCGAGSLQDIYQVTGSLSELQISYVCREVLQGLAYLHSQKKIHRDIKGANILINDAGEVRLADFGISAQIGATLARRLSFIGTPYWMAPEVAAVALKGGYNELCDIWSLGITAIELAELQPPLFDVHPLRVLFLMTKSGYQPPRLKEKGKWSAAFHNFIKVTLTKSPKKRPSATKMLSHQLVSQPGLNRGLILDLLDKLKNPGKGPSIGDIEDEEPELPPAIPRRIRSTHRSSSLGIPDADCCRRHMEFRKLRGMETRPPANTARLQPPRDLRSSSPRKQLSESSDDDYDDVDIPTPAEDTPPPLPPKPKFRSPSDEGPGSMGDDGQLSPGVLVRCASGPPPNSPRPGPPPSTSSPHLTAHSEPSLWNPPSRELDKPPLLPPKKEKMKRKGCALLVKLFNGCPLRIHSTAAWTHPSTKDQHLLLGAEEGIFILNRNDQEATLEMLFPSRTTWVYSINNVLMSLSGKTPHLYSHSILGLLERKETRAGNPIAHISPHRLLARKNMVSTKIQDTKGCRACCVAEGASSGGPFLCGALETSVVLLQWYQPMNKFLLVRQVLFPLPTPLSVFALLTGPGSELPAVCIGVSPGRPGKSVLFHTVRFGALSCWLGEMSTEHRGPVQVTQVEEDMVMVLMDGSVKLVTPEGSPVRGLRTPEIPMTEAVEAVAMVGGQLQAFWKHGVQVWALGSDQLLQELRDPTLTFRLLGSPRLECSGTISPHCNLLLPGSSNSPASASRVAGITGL

- kinase still bound, per cent of control [1]: 20%
- kinase still bound, per cent of control [2]: 6.2%
- kinase still bound, per cent of control [3]: 23%
- kinase still bound, per cent of control [4]: 0.8%
- kinase still bound, per cent of control [5]: 12%
- kinase still bound, per cent of control [6]: 1.1%
- kinase still bound, per cent of control [7]: 6.4%
- kinase still bound, per cent of control [8]: 11%
- kinase still bound, per cent of control [9]: 1.6%
- kinase still bound, per cent of control [10]: 5.3%
- kinase still bound, per cent of control [11]: 30%
- kinase still bound, per cent of control [12]: 23%
- kinase still bound, per cent of control [13]: 4.8%
SMILES: CCN1CCN(Cc2ccc(NC(=O)c3ccc(C)c(Oc4ccnc5[nH]ccc45)c3)cc2C(F)(F)F)CC1

SMILES: CCOc1cc(N2CCC(N3CCCCC3)CC2)ccc1Nc1nc(Nc2ccccc2S(=O)(=O)C(C)C)c2cn[nH]c2n1
- kinase still bound, per cent of control [1]: 26%
- kinase still bound, per cent of control [14]: 98%
- kinase still bound, per cent of control [15]: 100%
- kinase still bound, per cent of control [16]: 14%
- kinase still bound, per cent of control [17]: 69%
- kinase still bound, per cent of control [18]: 100%
- kinase still bound, per cent of control [19]: 59%
- kinase still bound, per cent of control [20]: 99%
- kinase still bound, per cent of control [21]: 98%
- kinase still bound, per cent of control [22]: 0.75%
- kinase still bound, per cent of control [23]: 71%
- kinase still bound, per cent of control [2]: 82%
- kinase still bound, per cent of control [24]: 100%
- kinase still bound, per cent of control [3]: 100%
- kinase still bound, per cent of control [4]: 84%
- kinase still bound, per cent of control [25]: 100%
- kinase still bound, per cent of control [5]: 100%
- kinase still bound, per cent of control [26]: 76%
- kinase still bound, per cent of control [27]: 100%
- kinase still bound, per cent of control [28]: 100%
- kinase still bound, per cent of control [29]: 100%
- kinase still bound, per cent of control [30]: 100%
- kinase still bound, per cent of control [31]: 64%
- kinase still bound, per cent of control [32]: 100%
- kinase still bound, per cent of control [6]: 19%
- kinase still bound, per cent of control [33]: 100%
- kinase still bound, per cent of control [34]: 0.9%
- kinase still bound, per cent of control [35]: 100%
- kinase still bound, per cent of control [36]: 100%
- kinase still bound, per cent of control [7]: 38%
- kinase still bound, per cent of control [8]: 98%
- kinase still bound, per cent of control [9]: 54%
- kinase still bound, per cent of control [37]: 100%
- kinase still bound, per cent of control [38]: 75%
- kinase still bound, per cent of control [39]: 71%
- kinase still bound, per cent of control [10]: 100%
- kinase still bound, per cent of control [11]: 0.3%
- kinase still bound, per cent of control [12]: 0.4%
- kinase still bound, per cent of control [40]: 100%
- kinase still bound, per cent of control [13]: 100%
- kinase still bound, per cent of control [41]: 24%
- kinase still bound, per cent of control [42]: 27%

- kinase still bound, per cent of control [14]: 0%
- kinase still bound, per cent of control [15]: 25%
- kinase still bound, per cent of control [16]: 10%
- kinase still bound, per cent of control [17]: 40%
- kinase still bound, per cent of control [18]: 0%
- kinase still bound, per cent of control [19]: 2.2%
- kinase still bound, per cent of control [20]: 17%
- kinase still bound, per cent of control [21]: 0.7%
- kinase still bound, per cent of control [22]: 0.1%
- kinase still bound, per cent of control [23]: 40%
- kinase still bound, per cent of control [2]: 40%
- kinase still bound, per cent of control [24]: 40%
- kinase still bound, per cent of control [3]: 40%
- kinase still bound, per cent of control [4]: 0.1%
- kinase still bound, per cent of control [25]: 40%
- kinase still bound, per cent of control [5]: 6.9%
- kinase still bound, per cent of control [26]: 2.8%
- kinase still bound, per cent of control [27]: 40%
- kinase still bound, per cent of control [28]: 0%
- kinase still bound, per cent of control [29]: 2.2%
- kinase still bound, per cent of control [30]: 40%
- kinase still bound, per cent of control [31]: 0.2%
- kinase still bound, per cent of control [32]: 40%
- kinase still bound, per cent of control [6]: 0.6%
- kinase still bound, per cent of control [33]: 18%
- kinase still bound, per cent of control [34]: 0.5%
- kinase still bound, per cent of control [35]: 0%
- kinase still bound, per cent of control [36]: 40%
- kinase still bound, per cent of control [7]: 0.25%
- kinase still bound, per cent of control [37]: 40%
- kinase still bound, per cent of control [38]: 40%
- kinase still bound, per cent of control [39]: 2%
- kinase still bound, per cent of control [11]: 0%
- kinase still bound, per cent of control [12]: 0.35%
- kinase still bound, per cent of control [40]: 4.5%
- kinase still bound, per cent of control [13]: 15%
- kinase still bound, per cent of control [41]: 0.1%
- kinase still bound, per cent of control [42]: 0%
SMILES: COc1cc(N2CCC(N3CCN(C)CC3)CC2)ccc1Nc1ncc(Cl)c(Nc2ccccc2S(=O)(=O)C(C)C)n1

SMILES: CCN1CCN(Cc2ccc(NC(=O)c3ccc(C)c(/C=C/c4cnc(Nc5cc(N6CCNCC6)nc(C)n5)cn4)c3)cc2C(F)(F)F)CC1
- kinase still bound, per cent of control [1]: 99%
- kinase still bound, per cent of control [14]: 83%
- kinase still bound, per cent of control [15]: 90%
- kinase still bound, per cent of control [16]: 13%
- kinase still bound, per cent of control [17]: 100%
- kinase still bound, per cent of control [18]: 78%
- kinase still bound, per cent of control [19]: 0.75%
- kinase still bound, per cent of control [20]: 23%
- kinase still bound, per cent of control [21]: 24%
- kinase still bound, per cent of control [22]: 94%
- kinase still bound, per cent of control [23]: 100%
- kinase still bound, per cent of control [2]: 34%
- kinase still bound, per cent of control [24]: 50%
- kinase still bound, per cent of control [3]: 9.6%
- kinase still bound, per cent of control [4]: 0.45%
- kinase still bound, per cent of control [25]: 100%
- kinase still bound, per cent of control [5]: 4%
- kinase still bound, per cent of control [26]: 100%
- kinase still bound, per cent of control [27]: 81%
- kinase still bound, per cent of control [28]: 100%
- kinase still bound, per cent of control [29]: 15%
- kinase still bound, per cent of control [30]: 100%
- kinase still bound, per cent of control [31]: 100%
- kinase still bound, per cent of control [32]: 100%
- kinase still bound, per cent of control [6]: 4.6%
- kinase still bound, per cent of control [33]: 100%
- kinase still bound, per cent of control [34]: 67%
- kinase still bound, per cent of control [35]: 18%
- kinase still bound, per cent of control [36]: 5.4%
- kinase still bound, per cent of control [7]: 60%
- kinase still bound, per cent of control [8]: 60%
- kinase still bound, per cent of control [9]: 0%
- kinase still bound, per cent of control [37]: 100%
- kinase still bound, per cent of control [38]: 100%
- kinase still bound, per cent of control [39]: 100%
- kinase still bound, per cent of control [10]: 3.6%
- kinase still bound, per cent of control [11]: 65%
- kinase still bound, per cent of control [12]: 44%
- kinase still bound, per cent of control [40]: 0.8%
- kinase still bound, per cent of control [13]: 12%
- kinase still bound, per cent of control [41]: 100%
- kinase still bound, per cent of control [42]: 81%
